Assay results published in patent US11033539B2, “Compounds of formulas (VII), (VIII), (IX), (XI), (XII), (XIII), and (XIV) as muscarinic receptor 4(M4) antagonists for treating neurological diseases” (Neurocrine Biosciences, Inc., priority 2015, dated 2021).

Molecular target: human M4 receptor (Homo sapiens (Human), UniProt P08173)
Assay: Radioligand (tritiated N-methylscopolamine) binding assay, M4
Conditions: Ki against the M4 receptor; membranes from CHO cells expressing human M4; tritiated N-methylscopolamine 1.5 nM; read-out: Ki
Experimental: Binding affinity (Ki) of compounds was measured by inhibition of radioligand binding to membranes from CHO cells expressing human M1, M2, M3, M4 and M5 receptors. Membranes were prepared by nitrogen cavitation and differential centrifugation as previously described (Hoare et al., Mol. Pharmacol. 2003 March; 63(3): 751-65). The radioligand employed was tritiated N-methylscopolamine, used at a concentration of 1.5 nM. A dose-response of twelve concentrations of compound was used, ranging from 10 μM to […]. The assay buffer was 50 mM HEPES, 100 mM NaCl, 5 mM MgCl2, 1 mM ethylenediaminetetraacetic acid, pH-adjusted to pH 7.4. Membranes, radioligand and compound were incubated together for 90 minutes at 37° C., in a total volume of 150 μl in a 96-well plate. Receptor-bound radioligand was then collected by harvesting the assay over glass fiber filters pretreated with polyethylenimine to trap the cell membranes, using rapid vacuum filtration. Harvesting and radioactivity counting was conducted as previously described (see, e.g., Hoare et al., Mol. Pharmacol. 2003 63(3):751-65); Erratum at Mol. Pharmacol. 2005 July; 68(1): 260).

human M4 receptor, sequence (P08173 whole entry): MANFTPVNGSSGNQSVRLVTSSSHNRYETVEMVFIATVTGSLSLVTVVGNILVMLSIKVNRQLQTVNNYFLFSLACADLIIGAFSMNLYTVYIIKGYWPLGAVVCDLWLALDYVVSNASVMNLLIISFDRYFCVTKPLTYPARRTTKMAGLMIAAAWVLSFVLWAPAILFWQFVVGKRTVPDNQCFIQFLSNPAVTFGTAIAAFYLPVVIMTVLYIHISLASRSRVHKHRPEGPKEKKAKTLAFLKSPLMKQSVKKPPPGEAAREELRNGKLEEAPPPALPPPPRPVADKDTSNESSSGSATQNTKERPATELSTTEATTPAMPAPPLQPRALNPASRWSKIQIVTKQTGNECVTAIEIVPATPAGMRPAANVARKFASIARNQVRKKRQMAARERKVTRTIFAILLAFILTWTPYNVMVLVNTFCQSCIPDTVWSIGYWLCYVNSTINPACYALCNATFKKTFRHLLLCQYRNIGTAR

| Compound | Ki [nM] |
| --- | --- |
| C[C@@H]1CN(c2cnc(C#N)nc2)C[C@H](C)N1C(=O)NCCC1CCN(Cc2ccccc2)CC1 [23-1, (2S,6R)-N-[2-(1-benzylpiperidin-4-yl)ethyl]-4-(2-cyanopyrimidin-5-yl)-2,6-dimethylpiperazine-1-carboxamide] | 100 to 1000 |
| O=C(NCCC1CCN(Cc2ccccc2)CC1)NC1CCN(c2ccc(F)cc2)CC1 [8-39, 1-[2-(1-benzylpiperidin-4-yl)ethyl]-3-[1-(4-fluorophenyl)piperidin-4-yl]urea] | 100 to 1000 |
| COc1cc(N2CCN(C(=O)NCCC3CCN(Cc4ccccc4)CC3)[C@H](C)C2)ccc1C#N [22-28, (2R)-N-[2-(1-benzylpiperidin-4-yl)ethyl]-4-(4-cyano-3-methoxyphenyl)-2-methylpiperazine-1-carboxamide] | 10 to 100 |
| N#Cc1cncc(N2CCC(C(=O)NCCC3CCN(Cc4ccccc4)CC3)CC2)c1 [10-15, N-[2-(1-benzylpiperidin-4-yl)ethyl]-1-(5-cyanopyridin-3-yl)piperidine-4-carboxamide] | 100 to 1000 |
| N#Cc1ccc(N2CCC(C(=O)NCCC3CCN(Cc4cccc5c4OCCO5)CC3)CC2)nc1 [11-16, 1-(5-cyanopyridin-2-yl)-N-{2-[1-(2,3-dihydro-1,4-benzodioxin-5-ylmethyl)piperidin-4-yl]ethyl}piperidine-4-carboxamide] | 100 to 1000 |
| C[C@@H]1CN(c2ncc(Br)c(Cl)n2)CCN1C(=O)NCCC1CCN(Cc2ccccc2)CC1 [5-10, (2R)-N-[2-(1-benzylpiperidin-4-yl)ethyl]-4-(5-bromo-4-chloropyrimidin-2-yl)-2-methylpiperazine-1-carboxamide] | 100 to 1000 |
| C[C@@H]1CN(c2cnc(C(F)(F)F)nc2)C[C@H](C)N1C(=O)NCCC1CCN(Cc2ccccc2)CC1 [22-1, (2R,6S)—N-[2-(1-benzylpiperidin-4-yl)ethyl]-2,6-dimethyl-4-[2-(trifluoromethyl)pyrimidin-5-yl]piperazine-1-carboxamide] | 10 to 100 |
| O=C(NCCC1CCN(Cc2ccccc2)CC1)C1CCN(c2ccccc2)CC1 [10-3, N-[2-(1-benzylpiperidin-4-yl)ethyl]-1-phenylpiperidine-4-carboxamide] | 100 to 1000 |
| C[C@@H]1CN(c2ncc(C(F)(F)F)cn2)CCN1C(=O)NCCC1CCN(Cc2ccc(C#N)cc2)CC1 [6-41, (2R)-N-(2-{1-[(4-cyanophenyl)methyl]piperidin-4-yl}ethyl)-2-methyl-4-[5-(trifluoromethyl)pyrimidin-2-yl]piperazine-1-carboxamide] | 10 to 100 |
| N#Cc1ccc(N2CCC(C(=O)NCCC3CCN(Cc4ccccc4)CC3)CC2)nc1 [9-47, N-[2-(1-benzylpiperidin-4-yl)ethyl]-1-(5-cyanopyridin-2-yl)piperidine-4-carboxamide] | 100 to 1000 |
| C[C@@H]1CN(c2ccccc2)CCN1C(=O)NCCC1CCN(Cc2ccccc2)CC1 [4-47, (2R)-N-[2-(1-benzylpiperidin-4-yl)ethyl]-2-methyl-4-phenylpiperazine-1-carboxamide] | 10 to 100 |
| COc1ccccc1CN1CCC(CCNC(=O)N2[C@H](C)CN(c3ncc(C#N)cn3)C[C@@H]2C)CC1 [6-67, (2R,6S)-4-(5-cyanopyrimidin-2-yl)-N-(2-{1-[(2-methoxyphenyl)-methyl]piperidin-4-yl}ethyl)-2,6-dimethylpiperazine-1-carboxamide] | 10 to 100 |
| COC1(C(=O)NCCC2CCN(Cc3ccccc3)CC2)CCN(c2ccc(OC(F)(F)F)cn2)CC1 [10-63, N-[2-(1-benzylpiperidin-4-yl)ethyl]-4-methoxy-1-[5-(trifluoromethoxy)pyridin-2-yl]piperidine-4-carboxamide] | 100 to 1000 |
| C[C@@H]1CN(c2ncc(C#N)cn2)C[C@H](C)N1C(=O)NCCC1CCN(Cc2ccc(B(O)O)cc2)CC1 [6-63, (4-{[4-(2-{[(2R,6S)-4-(5-cyanopyrimidin-2-yl)-2,6-dimethyl-piperazine-1-carbonyl]amino}ethyl)piperidin-1-yl]methyl}phenyl)boronic acid] | 100 to 1000 |
| O=C(NCCC1CCN(Cc2ccccc2)CC1)N1CCC(c2c[nH]c3ccccc23)CC1 [8-30, N-[2-(1-benzylpiperidin-4-yl)ethyl]-4-(1H-indol-3-yl)piperidine-1-carboxamide] | 100 to 1000 |
| N#Cc1ccccc1N1CCC(C(=O)NCCC2CCN(Cc3ccccc3)CC2)CC1 [10-67, N-[2-(1-benzylpiperidin-4-yl)ethyl]-1-(2-cyanophenyl)piperidine-4-carboxamide] | 100 to 1000 |
| O=C(NCCN1CCC(O)(Cc2ccccc2)CC1)c1ccn2cc(-c3ccc(OC(F)(F)F)cc3)nc2c1 [9-19, N-[2-(4-benzyl-4-hydroxypiperidin-1-yl)ethyl]-2-[4-(trifluoromethoxy)phenyl]imidazo[1,2-a]pyridine-7-carboxamide] | 100 to 1000 |
| O=C(NCCC1CCN(Cc2cccnc2F)CC1)c1ccc(Oc2ccccc2)cc1 [11-2, N-(2-{1-[(2-fluoropyridin-3-yl)methyl]piperidin-4-yl}ethyl)-4-phenoxybenzamide] | 10 to 100 |
| O=C(NCCC1CCN(Cc2ccccc2)CC1)C1(O)CCN(c2cc(F)c(F)c(F)c2)CC1 [10-40, N-[2-(1-benzylpiperidin-4-yl)ethyl]-4-hydroxy-1-(3,4,5-trifluorophenyl)piperidine-4-carboxamide] | 10 to 100 |

| Compound | Ki [nM] |
| --- | --- |
| COc1ccc(N2CCN(C(=O)NCCC3CCN(Cc4ccccc4)CC3)CC2C)cc1 (stereo not shown) [4-56, N-[2-(1-benzylpiperidin-4-yl)ethyl]-4-(4-methoxyphenyl)-3-methylpiperazine-1-carboxamide] | 100 to 1000 |
| CCN1CCN(C2CCN(C(=O)NCCC3CCN(Cc4ccccc4)CC3)CC2)CC1 [8-37, N-[2-(1-benzylpiperidin-4-yl)ethyl]-4-(4-ethylpiperazin-1-yl)piperidine-1-carboxamide] | 100 to 1000 |
| Cc1c(C(=O)NCCC2CCN(Cc3cccc4c3OCCO4)CC2)cnc2cc(-c3ccccc3)nn12 [19-2] | 10 to 100 |
| N#Cc1cc(OC(F)(F)F)cc(N2CCC(O)(C(=O)NCCC3CCN(Cc4ccccc4)CC3)CC2)c1 [10-46, N-[2-(1-benzylpiperidin-4-yl)ethyl]-1-[3-cyano-5-(trifluoromethoxy)phenyl]-4-hydroxypiperidine-4-carboxamide] | 10 to 100 |
| O=C(NCCC1CCN(Cc2ccccc2)CC1)C1(F)CCN(c2ccc(OC(F)(F)F)cc2)CC1 [10-55, N-[2-(1-benzylpiperidin-4-yl)ethyl]-4-fluoro-1-[4-(trifluoromethoxy)phenyl]piperidine-4-carboxamide] | 10 to 100 |
| Cc1c(C(=O)NCCC2CCN(Cc3ccccc3)CC2)cnc2cc(-c3cccnc3F)nn12 [18-18] | 100 to 1000 |
| Cc1c(C(=O)NCCC2CCN(Cc3ccncc3)CC2)cnc2cc(-c3cccc(C(F)(F)F)c3)nn12 [19-5] | 100 to 1000 |
| COc1cc(C)c(-c2cc3ncc(C(=O)NCCC4CCN(Cc5ccccc5)CC4)c(C)n3n2)cn1 [18-19] | 100 to 1000 |
| Cc1cc(CN2CCC(CCNC(=O)N3[C@H](C)CN(c4ncc(C#N)cn4)C[C@@H]3C)CC2)ccc1O [6-57, (2R,6S)-4-(5-cyanopyrimidin-2-yl)-N-(2-{1-[(4-hydroxy-3-methylphenyl)methyl]piperidin-4-yl}ethyl)-2,6-dimethylpiperazine-1-carboxamide] | 10 to 100 |
| N#Cc1ccc(-n2cnc(C(=O)NCCC3CCN(Cc4ccccc4)CC3)c2)nc1 [9-75, N-[2-(1-benzylpiperidin-4-yl)ethyl]-1-(5-cyanopyridin-2-yl)-1H-imidazole-4-carboxamide] | 100 to 1000 |
| O=C(NCCC1CCN(Cc2ccccc2)CC1)N1CCN(c2ccc(OC(F)(F)F)cc2)CC1 [8-8, N-[2-(1-benzylpiperidin-4-yl)ethyl]-4-[4-(trifluoromethoxy)phenyl]piperazine-1-carboxamide] | 10 to 100 |
| O=C(NCCC1CCN(Cc2ccccc2)CC1)C1CCN(c2ccc(OC(F)F)cc2)CC1 [10-76, N-[2-(1-benzylpiperidin-4-yl)ethyl]-1-[4-(difluoromethoxy)phenyl]piperidine-4-carboxamide] | 10 to 100 |
| C[C@H]1CN(c2ncc(C#N)cn2)C[C@H](C)N1C(=O)NCCC1CCN(Cc2ccccc2)CC1 [26-3] | 100 to 1000 |
| O=C(NC1CCN(c2ccc(F)cc2)CC1)OCCC1CCN(Cc2ccccc2)CC1 [12-6, 2-(1-benzylpiperidin-4-yl)ethyl N-[1-(4-fluorophenyl)piperidin-4-yl]carbamate] | 100 to 1000 |
| C[C@@H]1CN(c2ncc(F)cn2)CCN1C(=O)NCCC1CCN(Cc2ccccc2)CC1 [4-41, (2R)-N-[2-(1-benzylpiperidin-4-yl)ethyl]-4-(5-fluoropyrimidin-2-yl)-2-methylpiperazine-1-carboxamide] | 10 to 100 |
| CN(C(=O)c1ccc(Cl)c(-c2nc3ccccc3cc2C#N)c1)[C@@H]1CCN(C2CCCCC2)C1 [9-18, 4-chloro-3-(3-cyanoquinolin-2-yl)-N-[(3R)-1-cyclohexylpyrrolidin-3-yl]-N-methylbenzamide] | 100 to 1000 |
| C[C@@H]1CN(c2ccc(F)c(C#N)c2)CCN1C(=O)NCCC1(CO)CCN(Cc2ccccc2)CC1 [7-2, (2R)-N-{2-[1-benzyl-4-(hydroxymethyl)piperidin-4-yl]ethyl}-4-(3-cyano-4-fluorophenyl)-2-methylpiperazine-1-carboxamide] | 10 to 100 |
| O=C(NCCC1(O)CCN(Cc2ccccc2)CC1)C1CCN(c2cccc(OC(F)(F)F)c2)CC1 [9-46, N-[2-(1-benzyl-4-hydroxypiperidin-4-yl)ethyl]-1-[3-(trifluoromethoxy)phenyl]piperidine-4-carboxamide] | 10 to 100 |
